Measurements reported in patent US20230117034A1, “PYRAZOLOTRIAZINES” (Bayer Aktiengesellschaft, priority 2019, published 2023).
Like-named read-outs stand apart in the source and are kept apart here.

Key:
Type in all cases: cell-based
[1] = tested on: CAL-120, human breast adenocarcinoma cells; test: Proliferation assay CAL-120 (crystal violet, 4 days); settings: CAL-120 cells, median, read-out: Prolif-CAL-120, IC50-[mol/l] (median)
Method in brief: (§1)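 Cells seeded at 4,000/well in medium with 10% FCS; after 24 h, compounds added at 0.01-10 µmol/L (0.1% DMSO) for 4 days. Glutaraldehyde-fixed, crystal violet-stained, absorbance at 595 nm normalized to zero-point plate (0%) and untreated cells (100%); IC50 by 4-parameter fit.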

[2] = tested on: MDA-MB-231, human breast cancer cells; test: Proliferation assay MDA-MB-231 (crystal violet, 4 days); settings: MDA-MB-231 cells, median, read-out: Prolif-MDA MB-231, IC50-[mol/l] (median)
Method in brief: as §1

[3] = biological target: T1, CYCLIN K (nuclear staining in CAL-120 cells) (Homo sapiens, UniProt O75909); test: CYCLIN K nuclear protein level: immunofluorescence high content analysis (CAL-120); settings: 24 h, 50% reduction of nuclear CCNK staining intensity, median, read-out: CYCLIN K degradation IF, DC50-[mol/l] (median)
T1 construct: endogenous in cells; host or cells: CAL-120 human breast cancer cells (DSMZ ACC 459)
T1 sequence (O75909 whole entry): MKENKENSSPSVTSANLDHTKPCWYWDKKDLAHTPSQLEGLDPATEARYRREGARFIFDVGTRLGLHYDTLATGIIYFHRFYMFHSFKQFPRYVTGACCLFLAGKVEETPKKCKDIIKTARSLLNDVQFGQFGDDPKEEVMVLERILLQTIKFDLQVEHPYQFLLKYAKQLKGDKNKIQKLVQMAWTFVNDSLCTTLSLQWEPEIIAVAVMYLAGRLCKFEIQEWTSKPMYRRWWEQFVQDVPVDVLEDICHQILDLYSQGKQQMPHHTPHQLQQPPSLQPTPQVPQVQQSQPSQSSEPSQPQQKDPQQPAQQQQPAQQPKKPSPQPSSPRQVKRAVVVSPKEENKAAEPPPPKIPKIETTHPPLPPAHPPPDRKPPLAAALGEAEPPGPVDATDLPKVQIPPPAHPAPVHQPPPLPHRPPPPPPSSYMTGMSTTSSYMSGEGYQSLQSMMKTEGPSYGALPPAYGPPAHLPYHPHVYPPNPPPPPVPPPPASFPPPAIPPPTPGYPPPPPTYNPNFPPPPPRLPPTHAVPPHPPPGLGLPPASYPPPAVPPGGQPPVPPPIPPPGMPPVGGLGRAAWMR
T1 sequence (Q9NYV4 whole entry partner): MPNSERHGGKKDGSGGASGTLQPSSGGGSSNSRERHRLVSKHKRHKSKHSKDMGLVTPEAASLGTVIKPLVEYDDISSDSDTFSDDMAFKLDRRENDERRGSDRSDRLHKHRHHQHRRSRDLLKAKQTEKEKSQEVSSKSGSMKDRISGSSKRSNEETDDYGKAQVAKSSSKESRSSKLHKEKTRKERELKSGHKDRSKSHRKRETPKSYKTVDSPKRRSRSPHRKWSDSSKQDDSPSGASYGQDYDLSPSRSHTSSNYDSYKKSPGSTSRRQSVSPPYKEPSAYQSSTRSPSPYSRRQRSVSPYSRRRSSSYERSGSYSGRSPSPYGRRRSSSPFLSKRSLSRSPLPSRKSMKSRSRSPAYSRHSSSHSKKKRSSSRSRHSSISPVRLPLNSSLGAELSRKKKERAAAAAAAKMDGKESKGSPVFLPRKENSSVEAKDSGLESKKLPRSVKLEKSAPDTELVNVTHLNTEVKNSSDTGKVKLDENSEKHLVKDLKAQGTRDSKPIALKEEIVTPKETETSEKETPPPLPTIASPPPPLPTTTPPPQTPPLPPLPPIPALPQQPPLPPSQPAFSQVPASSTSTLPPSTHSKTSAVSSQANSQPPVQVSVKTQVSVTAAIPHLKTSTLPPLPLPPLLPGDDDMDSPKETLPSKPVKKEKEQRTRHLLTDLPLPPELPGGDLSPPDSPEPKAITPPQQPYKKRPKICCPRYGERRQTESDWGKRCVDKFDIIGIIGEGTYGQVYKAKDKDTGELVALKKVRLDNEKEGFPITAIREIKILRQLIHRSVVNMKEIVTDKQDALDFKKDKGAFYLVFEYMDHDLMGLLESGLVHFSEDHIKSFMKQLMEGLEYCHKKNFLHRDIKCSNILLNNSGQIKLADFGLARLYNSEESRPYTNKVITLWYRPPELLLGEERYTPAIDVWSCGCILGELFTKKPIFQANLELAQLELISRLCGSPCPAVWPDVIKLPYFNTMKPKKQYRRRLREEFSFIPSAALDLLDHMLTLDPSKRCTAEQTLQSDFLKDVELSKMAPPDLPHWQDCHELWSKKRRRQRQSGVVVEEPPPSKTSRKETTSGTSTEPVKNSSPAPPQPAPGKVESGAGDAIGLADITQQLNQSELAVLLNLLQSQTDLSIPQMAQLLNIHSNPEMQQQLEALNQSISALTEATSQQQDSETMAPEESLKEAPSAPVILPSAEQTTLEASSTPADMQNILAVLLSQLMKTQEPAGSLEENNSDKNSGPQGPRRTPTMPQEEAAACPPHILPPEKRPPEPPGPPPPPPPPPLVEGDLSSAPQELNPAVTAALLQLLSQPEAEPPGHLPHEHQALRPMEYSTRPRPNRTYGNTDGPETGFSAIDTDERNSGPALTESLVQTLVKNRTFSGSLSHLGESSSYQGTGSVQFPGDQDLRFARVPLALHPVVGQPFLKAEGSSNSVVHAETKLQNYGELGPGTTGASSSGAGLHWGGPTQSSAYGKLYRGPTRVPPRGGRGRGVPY
Method in brief: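 CAL-120 breast cancer cells treated in dose-response for 24 h at 37 °C, PFA-fixed and immunostained for cyclin K with Hoechst counterstain. Confocal imaging quantified nuclear intensity; DC50 is the concentration giving 50% reduction of nuclear CCNK staining, normalized to DMSO and control.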

[4] = biological target: T2, CDK12 (nuclear staining in CAL-120 cells) (Homo sapiens, UniProt Q9NYV4); test: CDK12 nuclear protein level: immunofluorescence/high content analysis (CAL-120); settings: for DC50: CAL-120 cells, 24 h, immunofluorescence, 50% reduction of nuclear CDK12 staining intensity, median, read-out: CDK12 degradation IF, DC50- [mol/l] (median); for (IC50 CDK12 high ATP) to (Degradation DC50 CDK12) ratio: ratio of IC50 CDK12 high ATP kinase assay to DC50 CDK12 degradation (IF, CAL-120)
T2 construct: endogenous in cells; host or cells: CAL-120 human breast cancer cells (DSMZ ACC 459)
T2 sequence (Q9NYV4 whole entry): as the sequence (Q9NYV4 whole entry partner) above
T2 sequence (O75909 whole entry partner): as the sequence (O75909 whole entry) above
Method in brief: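 CAL-120 cells were treated with compound for 24 h at 37 °C, fixed with PFA and immunostained for CDK12. Nuclear CDK12 intensity was quantified by automated image analysis and normalized to DMSO and control. DC50 is the concentration giving 50% reduction of nuclear staining.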

Row | Compound | IC50 [1] [nM] | IC50 [2] [nM] | DC50 [3] [nM] | DC50 [4] [nM] | (IC50 CDK12 high ATP) to (Degradation DC50 CDK12) ratio [4] | IC50 ([1]; Homo sapiens, CAL-120, 96 h) [nM] | IC50 ([2]; Homo sapiens, MDA-MB-231, 96 h) [nM]
1 | CC1CN(C)CCN1c1nc(NCc2nc3ccccc3[nH]2)n2ncc(Br)c2n1 (single isomer, unassigned; enantiomer 2) [Example 261, N-(1H-benzimidazol-2-ylmethyl)-8-bromo-2-[(2R or S)-2,4-dimethylpiperazin-1-yl]pyrazolo[1,5-a][1,3,5]triazin-4-amine (Enantiomer 2)] | 38.9 | 99.9 | 1.23 | 19.9 | >942 | – | –
2 | Fc1ccc2[nH]c(CNc3nc(N4CCOCC4)nc4c(C(F)(F)F)cnn34)nc2c1 [Example 273, N-[(5-fluoro-1H-benzimidazol-2-yl)methyl]-2-(morpholin-4-yl)-8-(trifluoromethyl)pyrazolo[1,5-a][1,3,5]triazin-4-amine] | – | – | 0.66 | 1.44 | 512 | 4.49 | 6
3 | FC(F)(F)c1cnn2c(NCc3nc4cc(Cl)ccc4[nH]3)nc(N3CCOCC3)nc12 [Example 275, N-[(5-chloro-1H-benzimidazol-2-yl)methyl]-2-(morpholin-4-yl)-8-(trifluoromethyl)pyrazolo[1,5-a][1,3,5]triazin-4-amine] | – | – | 0.303 | 1.7 | 57 | 3.88 | 3.87
4 | N[C@@H]1CCN(c2nc(NCc3nc4ccccc4[nH]3)n3ncc(Br)c3n2)C1 [Example 250, 2-[(3R)-3-aminopyrrolidin-1-yl]-N-[(1H-benzimidazol-2-yl)methyl]-8-bromopyrazolo[1,5-a][1,3,5]triazin-4-amine] | – | – | 0.407 | 3.16 | 3560 | 3.49 | 34.4
5 | CN(CC(C)(C)O)c1nc(NCc2nc3c(F)cccc3[nH]2)n2ncc(C3CC3)c2n1 [Example 295, 1-[(8-cyclopropyl-4-{[(4-fluoro-1H-benzimidazol-2-yl)methyl]amino}pyrazolo[1,5-a][1,3,5]triazin-2-yl)(methyl)amino]-2-methylpropan-2-ol] | – | – | 2.55 | 3.52 | 235 | 7.25 | 23.7
6 | Clc1cc2nc(CNc3nc(N4CCOCC4)nc4c(C5CC5)cnn34)[nH]c2cc1Cl [Example 301, 8-cyclopropyl-N-[(5,6-dichloro-1H-benzimidazol-2-yl)methyl]-2-(morpholin-4-yl)pyrazolo[1,5-a][1,3,5]triazin-4-amine] | – | – | 0.59 | 4.37 | 270 | 5.74 | 7.75
7 | Cc1cc2nc(CNc3nc(N4CCN(C)CC4)nc4c(C5CC5)cnn34)[nH]c2cc1C [Example 312, 8-cyclopropyl-N-[(5,6-dimethyl-1H-benzimidazol-2-yl)methyl]-2-(4-methylpiperazin-1-yl)pyrazolo[1,5-a][1,3,5]triazin-4-amine] | – | – | 0.518 | 3.9 | 2616 | 2.32 | 3.21
8 | FC(F)(F)Cc1cnn2c(NCc3nc4cc(Cl)c(Cl)cc4[nH]3)nc(N3CCOCC3)nc12 [Example 302, N-[(5,6-dichloro-1H-benzimidazol-2-yl)methyl]-2-(morpholin-4-yl)-8-(2,2,2-trifluoroethyl)pyrazolo[1,5-a][1,3,5]triazin-4-amine] | – | – | 1.66 | – | 557 | 8.98 | 11.9
9 | FC1(F)CC1c1cnn2c(NCc3nc4ccccc4[nH]3)nc(N3CCOCC3)nc12 (stereo not drawn) [Example 279, N-[(1H-benzimidazol-2-yl)methyl]-8-(2,2-difluorocyclopropyl)-2-(morpholin-4-yl)pyrazolo[1,5-a][1,3,5]triazin-4-amine] | – | – | 3.78 | 4.72 | 2961 | 17.2 | 34.8
10 | CCNC1CCN(c2nc(NCc3nc4ccccc4[nH]3)n3ncc(Br)c3n2)CC1 [Example 300] | – | – | 1.03 | 17.9 | >1120 | 16.2 | 106
11 | Fc1cc2nc(CNc3nc(N4CCOCC4)nc4c(C5CC5)cnn34)[nH]c2cc1Cl [Example 307, N-[(6-chloro-5-fluoro-1H-benzimidazol-2-yl)methyl]-8-cyclopropyl-2-(morpholin-4-yl)pyrazolo[1,5-a][1,3,5]triazin-4-amine] | – | – | 0.863 | 8.26 | 190 | 4.6 | 5.05
12 | Fc1cccc2[nH]c(CNc3nc(N4CCOCC4)nc4c(C(F)(F)F)cnn34)nc12 [Example 274, N-[(4-fluoro-1H-benzimidazol-2-yl)methyl]-2-(morpholin-4-yl)-8-(trifluoromethyl)pyrazolo[1,5-a][1,3,5]triazin-4-amine] | – | – | 3.21 | 0.881 | 64 | 4.89 | 6.74
13 | CN1CCN(c2nc(NCc3nc4cc(Cl)ccc4[nH]3)n3ncc(C(F)(F)F)c3n2)CC1 [Example 298, N-[(5-chloro-1H-benzimidazol-2-yl)methyl]-2-(4-methylpiperazin-1-yl)-8-(trifluoromethyl)pyrazolo[1,5-a][1,3,5]triazin-4-amine] | – | – | 1.44 | 4.22 | 1968 | 4.05 | 10.5
14 | Brc1cnn2c(NCc3nc4ccccc4[nH]3)nc(N3C[C@@H]4C[C@H]3CN4)nc12 [Example 270, N-[(1H-benzimidazol-2-yl)methyl]-8-bromo-2-[(1S,4S)-2,5-diazabicyclo[2.2.1]heptan-2-yl]pyrazolo[1,5-a][1,3,5]triazin-4-amine] | – | – | 0.19 | 1.71 | 8023 | 6.92 | 22.5
15 | Brc1cnn2c(NCc3nc4ccccc4[nH]3)nc(N3C[C@H]4C[C@@H]3CN4)nc12 [Example 269, N-[(1H-benzimidazol-2-yl)methyl]-8-bromo-2-[(1R,4R)-2,5-diazabicyclo[2.2.1]heptan-2-yl]pyrazolo[1,5-a][1,3,5]triazin-4-amine] | – | – | 0.324 | 3.33 | 2588 | 7.31 | 29.3
16 | CC(C)CNc1nc(NCc2nc3ccccc3[nH]2)n2ncc(Br)c2n1 [Example 285, N^4-[(1H-benzimidazol-2-yl)methyl]-8-bromo-N^2-(2-methylpropyl)pyrazolo[1,5-a][1,3,5]triazine-2,4-diamine] | – | – | 3.46 | 32.3 | 200 | 80.3 | 90.6
17 | Fc1cccc2[nH]c(CNc3nc(N4C[C@H]5CC[C@@H](C4)N5)nc4c(C5CC5)cnn34)nc12 [Example 296, 8-cyclopropyl-2-[(1R,5S)-3,8-diazabicyclo[3.2.1]octan-3-yl]-N-[(4-fluoro-1H-benzimidazol-2-yl)methyl]pyrazolo[1,5-a][1,3,5]triazin-4-amine] | – | – | 1.15 | 2.55 | 971 | 1.52 | 4.4
